According to patent US20220248732A1, “Saltiness-Perception Enhancing Compounds” (Frito-Lay North America, Inc., priority 2021, published 2022):

Columns and labels:
[1] = system: panelists (saltiness intensity); assay: Descriptive analysis of saltiness intensity of topically coated potato chip samples (sample sets 3 and 4), 15-point scale; assay type: in vivo, human; details: for salt-enhancing activity on potato chips: applied topically (as mixture) to 20% and 40% salt reduced potato chips at the 1x dosage
From the text: (§1) The terms “saltiness,” “saltiness intensity,” and “mean saltiness intensity” may refer to the saltiness intensity of a compound, a composition, and/or a food product determined by an individual tasting a sample of the compound, the composition, and/or the food product and rating its saltiness intensity using a designated scale, such as the 15-point saltiness scale described herein.
(§2) Next, the panelists conducted descriptive analysis to evaluate the saltiness intensity of the following four sample sets.
(3) 1 g potato chip samples with 20% reduction in NaCl (12.3 g NaCl/kg) and 40% reductions in NaCl (9.2 g NaCl/kg), relative to traditional potato chips (15.4 g NaCl/kg); and
(4) 1 g potato chip samples at 20% and 40% salt reductions (relative to standard potato chips) with the addition of a mixture of the identified saltiness-enhancing compounds topically applied to potato chips at the endogenous level of the analyzed unsalted potato chips (1×).
(§3) Panelist evaluation of sample set (3): Twelve panelists rated saltiness intensity using a 15-point scale, in duplicate. The saltiness references provided were 0 points (water), 2.5 points (0.2% NaCl), 5 points (0.35% NaCl), and 8.5 points (0.5% NaCl).
Panelist evaluation of sample set (4): Nine panelists rated saltiness intensity using a 15-point scale, in duplicate. The saltiness references provided were 0 points (water), 2.5 points (0.2% NaCl), 5 points (0.35% NaCl), and 8.5 points (0.5% NaCl). […] Thus, application of one or more of the identified saltiness-perception enhancing compounds to a food product may enable a reduction of up to about 40 wt % of the amount of salt applied to a food product while eliminating or attenuating the concomitant reduction in saltiness that would otherwise occur.

[2] = system: panelists (saltiness intensity); assay: Descriptive analysis of saltiness intensity of aqueous salt solutions (sample sets 1 and 2), 15-point scale; assay type: in vivo, human; details: for saltiness enhancement in salt solutions: 1x dosage level, 3.52 g NaCl/L (20% NaCl reduction), Tukey HSD alpha 0.05
From the text: as §1, §2
(1) 2 mL samples of aqueous salt solutions with a 20% reduction in NaCl (3.52 g NaCl/L H2O) and 40% reduction in NaCl (2.64 NaCl/L H2O), relative to 2 mL of a control sample having a simulated saltiness intensity of traditional potato chips (4.40 g NaCl/L H2O);
(2) 2 mL samples of pH 6.2-6.5 aqueous salt solutions at the 20% NaCl reduction level (3.52 g NaCl/L H2O) with the addition of individual ones of the identified saltiness-enhancing compounds, where the compound dosage was at the endogenous level of the analyzed unsalted potato chips (1×) and at three times the endogenous level of the potato chips (3×);
Panelist evaluation of sample set (1): Twelve panelists rated saltiness intensity using a 15-point scale, in duplicate. The saltiness references provided were 0 points (water), 2.5 points (0.2% NaCl), 5 points (0.35% NaCl), and 8.5 points (0.5% NaCl).
as §3, with “(2): Eight” for “(3): Twelve”, “NaCl). The sensory dosage concentrations of the saltiness-enhancing compounds of the samples of sample set (2) is shown below in Table 3.” for “NaCl).”

## [Cl-].[Na+] [NaCl, sodium chloride]
[1]; 9.2 g/kg NaCl on potato chips alone, 40% salt reduction sample comparison, nine panelists, Tukey group c
  Mean Saltiness Intensity: 4.2 c
[1]; 12.3 g NaCl per Kg potato chips alone, 20% salt reduction sample comparison, nine panelists, Tukey group b
  Mean Saltiness Intensity: 5.0 b
[1]; 15.4 g NaCl (full salt) per Kg potato chips, 20% salt reduction sample comparison, nine panelists, Tukey group a
  Mean Saltiness Intensity: 6.2 a
[1]; 15.4 g NaCl (full salt) per Kg potato chips, 40% salt reduction sample comparison, nine panelists, Tukey group a
  Mean Saltiness Intensity: 6.2 a
[1]; topical coating 9.2 g NaCl per Kg potato chips, 40% reduced salt, 15-point scale, twelve panelists, Tukey group C
  Mean Saltiness Intensity: 4.2 C
[1]; topical coating 12.3 g NaCl per Kg potato chips, 20% reduced salt, 15-point scale, twelve panelists, Tukey group B
  Mean Saltiness Intensity: 5.3 B
[1]; topical coating 15.4 g NaCl per Kg potato chips (traditional), 15-point scale, twelve panelists, Tukey group A
  Mean Saltiness Intensity: 6.1 A
[2]; 2.64 g NaCl per L water, 40% reduced salt, 15-point scale, twelve panelists, Tukey group C
  Mean Saltiness Intensity: 4.4 C
[2]; 3.52 g NaCl per L water alone, control of GAX sample set, 15-point scale, eight panelists, Tukey group b
  Mean Saltiness Intensity: 5.0 b
[2]; 3.52 g NaCl per L water alone, control of KA sample set, 15-point scale, eight panelists, Tukey group b
  Mean Saltiness Intensity: 5.1 b
[2]; 3.52 g NaCl per L water alone, control of L-Trp sample set, 15-point scale, eight panelists, Tukey group b
  Mean Saltiness Intensity: 5.1 b
[2]; 3.52 g NaCl per L water, 20% reduced salt, 15-point scale, twelve panelists, Tukey group B
  Mean Saltiness Intensity: 5.4 B
[2]; 4.40 g NaCl per L water (control), 15-point scale, twelve panelists, Tukey group A
  Mean Saltiness Intensity: 7.2 A

## O=C(O)c1cc(O[C@@H]2OC[C@@H](O)[C@H](O)[C@H]2O)ccc1O [GAX, Gentisic acid 5-O-β-D xylopyranoside]
[1]
  salt-enhancing activity on potato chips: salt-enhancing activity
[2]
  saltiness enhancement in salt solutions: significant saltiness enhancement
[2]; 3.52 g NaCl + 0.44 mg GAX per L water (1x), pH 6.2-6.5, 15-point scale, eight panelists, Tukey group a (NaCl alone 5.0 b)
  Mean Saltiness Intensity: 6.0 a
[2]; 3.52 g NaCl + 1.32 mg GAX per L water (3x), pH 6.2-6.5, 15-point scale, eight panelists, Tukey group ab (NaCl alone 5.0 b)
  Mean Saltiness Intensity: 5.4 ab

## O=C(CCc1ccc(O)c(O)c1)NCCCNCCCCNCCCNC(=O)CCc1ccc(O)c(O)c1 [KA, Kukoamine A]
[1]
  salt-enhancing activity on potato chips: salt-enhancing activity
[2]
  saltiness enhancement in salt solutions: significant saltiness enhancement
[2]; 3.52 g NaCl + 1.57 mg KA per L water (1x), pH 6.2-6.5, 15-point scale, eight panelists, Tukey group a (NaCl alone 5.1 b)
  Mean Saltiness Intensity: 5.9 a
[2]; 3.52 g NaCl + 4.70 mg KA per L water (3x), pH 6.2-6.5, 15-point scale, eight panelists, Tukey group ab (NaCl alone 5.1 b)
  Mean Saltiness Intensity: 5.6 ab

## N[C@@H](Cc1c[nH]c2ccccc12)C(=O)O [L-Trp, L-tryptophan]
[1]
  salt-enhancing activity on potato chips: salt-enhancing activity
[2]; 3.52 g NaCl + 31.66 mg L-Trp per L water (1x), pH 6.2-6.5, 15-point scale, eight panelists, Tukey group a (NaCl alone 5.1 b)
  Mean Saltiness Intensity: 5.7 a
[2]; 3.52 g NaCl + 94.98 mg L-Trp per L water (3x), pH 6.2-6.5, 15-point scale, eight panelists, Tukey group a (NaCl alone 5.1 b)
  Mean Saltiness Intensity: 5.8 a
